The numbers were not newly measured in US20070110909A1, “Reduction or elimination of microbial growth and biofouling of salted wet biomass byproducts” (priority 2005, published 2007), which cites them from elsewhere.

The structures appear in SMILES notation.

One data set concerns rats, mice and hamsters. As to conditions: fore-stomachs of rats.
A further data set has as its system animal tests. The note with it: birth defects in rats.

For the compound `COc1ccc(O)c(C(C)(C)C)c1` [BHA, Butylated hydroxyanisole], in the data set with rats, mice and hamsters, the tumors in animals entry was “caused cancerous tumors”.

Consider `Cc1cc(C(C)(C)C)c(O)c(C(C)(C)C)c1` [BHT, Butylated hydroxytoluene], for which the “toxic effects in animal tests” value in the data set on animal tests is “caused liver cancer and lung tumors, increased blood cholesterol, reduced growth rates and body weight”.
